Earlier results as cited in patent publication US20110124713A1, “SAM-II RIBOSWITCH AND USES THEREOF” (The Regents of the University of Colorado, A body Corporate, priority 2007, published 2011).

System: SAM-II riboswitch
Conditions: absence vs presence of SAM; nucleotides G8-U12 in L1

## C[S+](CC[C@H](N)C(=O)O)C[C@H]1O[C@@H](n2cnc3c(N)ncnc32)[C@H](O)[C@@H]1O (stereo partly shown) [SAM, S-adenosylmethionine]
  ligand-dependent protections in in-line probing: strong ligand-dependent protections
